Laboratory results as given in article PMC5834492, “Antimycobacterial drug discovery using Mycobacteria-infected amoebae identifies anti-infectives and new molecular targets” (Scientific Reports, 2018).
Where two headings read alike, the source gives them in different places.

Columns and labels:
[1] = test system: M. marinum luxCDABE; type: cell-based, Mycobacterium marinum; details: 10 µM
[2] = test system: M. marinum GFP; type: cell-based, Mycobacterium marinum; details: 10 µM; antibiotic assay
[3] = test system: M. marinum in A. castellanii; type: cell-based, Mycobacterium marinum; details: 10 µM
[4] = test system: M. marinum in BV2 microglial cells; type: cell-based, Mycobacterium marinum
[5] = test system: D. discoideum GFP-ABD; details: 10 µM
[6] = test system: Mtb H37Rv in THP-1; design: method as in Sorrentino et al, 2015; details: ref Sorrentino et al, 2015, cited from earlier work; for Extracellular MIC90/ Inracellular MIC90: ratio
[7] = test system: Mtb H37Rv; design: method as in Sorrentino et al, 2015; details: ref Sorrentino et al, 2015; cited from earlier work
[8] = THP1 / Mtb H37Rv infection assay

Row | Structure (SMILES) | M. marinum luxCDABE normalised growth, control=1.00, mean [1] | M. marinum GFP normalised growth, control=1.00, mean [2] | A. castellanii / M. marinum normalised growth, control=1.00, mean [3] | IC50 [4] [µM] | BV2 / M. marinum normalised growth, control=1.00, mean ([4]; 10 µM) | D. discoideum GFP-ABD normalised growth, control=1.00, mean [5] | Intracelullar MIC90 in THP-1 [6, 8] [µM] | Extracellular MIC90/ Inracellular MIC90 [6] | Extracellular MIC90 [7] [µM] | M. marinum luxCDABE normalised growth, control = 1.00, mean [1] | Hits A. castellanii/M. marinum assay True/False [3] | anti-infective properties in A. castellanii infection assay [3] | anti-infective properties in microglial cell (BV2) infection assay ([4]; 10 µM) | hit in BV2/M. marinum assay True/False ([4]; 10 µM) | Intracelullar MIC90 in THP-1 ([6]; Mtb H37Rv-infected THP1 cells) [µM]
1 | O=C(NNC(=O)c1ccc([N+](=O)[O-])o1)c1ccc2ccccc2c1 [GSK347301A] | 0.19 | 1.03 | 0.90 | 6.58 | 0.97 | 0.49 | 16.65 | 0.5 | 8.3 |  |  |  |  |  | 
2 | FC(F)(F)c1nnc2ccc(Cl)nn12 [GSK352635A] | 0.60 | 0.81 | 1.02 | 7.58 | 0.89 | 1.17 | 50 | 0.18 | 9.1 |  |  |  |  |  | 
3 | CNc1nc(SC)nc2ccccc12 [GSK353069A] | 0.00 | 0.0149 | 0.47 | 1.31 | 0.42 | 0.99 | 0.07 | 2.86 | 0.2 | 0,00 | TRUE | strong anti-infective properties | strong anti-infective properties | TRUE | 0.07
4 | C=CCNc1nc(SC)nc2ccccc12 [GSK353071A] | 0.095 | 0.09 | 0.77 | 4.77 | 0.53 | 0.92 | 1.85 | 1.73 | 3.2 |  |  |  |  |  | 
5 | N=C(Nc1nc(-c2ccccn2)cc2ccccc12)c1cccc(Cl)c1 [GSK381407A] | 0.00 | 7.92e-5 | 1.06 | 7.71 | 0.65 | 0.98 | 0.61 | 7.38 | 4.5 |  |  |  |  |  | 
6 | Cc1nc2ccccn2c1C(=O)NCc1ccc2c(c1)OCO2 [GSK498315A] | 0.00 | 0.0644 | 0.56 | 5.95 | 0.47 | 0.81 | 1.85 | 1.57 | 2.9 | 0,00 | FALSE |  |  | TRUE | 1.85
7 | COc1cc2ccccc2cc1C(=O)NCc1cccc(-c2ccccc2OC)c1 [GSK695914A] | 0.00 | 0.0549 | 0.63 | 7.82 | 0.48 | 0.98 | 5.55 | 0.4 | 2.2 | 0,00 | FALSE |  |  | TRUE | 5.55
8 | COc1ccc2nc(C)cc(OCC(=O)Nc3cc(C)cc(C)c3)c2c1 [GSK749336A] | 0.00 | 0.14 | 0.58 | 7.32 | 0.63 | 0.67 | 5.55 | 0.05 | 0.3 |  |  |  |  |  | 
9 | COc1ccc(CCNC(=O)c2c(C)nc3ccccn23)cc1 [GSK762874A] | 0.00 | 0.08 | 0.70 | 3.64 | 0.59 | 1.04 | 5.55 | 0.56 | 3.1 |  |  |  |  |  | 
